According to patent publication US20260085262A1, “ACQ FLUORESCENCE PROBE COMPOSITION, CMC DETERMINATION METHOD, STAIN CLEANING CONCENTRATION DETERMINATION METHOD, DETERGENT DISPENSING CONTROL METHOD, AND DETERGENT DISPENSING CONTROL SYSTEM” (GUANGZHOU BLUEMOON INDUSTRIAL CO., LTD., priority 2024, published 2026):
Where two headings read alike, the source gives them in different places.

Key:
[1] = solvent, cited from earlier work
[2] = document value; cited from earlier work
[3] = Hansen solubility parameters (HSP), δ difference and HSP distance Ra
[4] = cmc determination with probe solutions in NMP, fluorescence spectrophotometer; format: physicochemical; settings: Supreme Clean solution (directly prepared); probe dissolved in NMP; range read from fluorescence intensity-concentration curve
Excerpt: (§1) In order to determine whether these fluorescence probe molecules can form a stable probe solution, the inventors dissolved these probe molecules in N-methylpyrrolidone (NMP).
(§2) Detergent solutions prepared in a series of concentrations, including the directly prepared Supreme Clean (i.e. Supreme Biotechnology (Clean) liquid laundry detergent) solution and Supreme Brilliant White (i.e. Supreme Biotechnology (Brilliant White) liquid laundry detergent) washing water containing a fluorescent brightener, are tested using these probe solutions formed above. Specifically, an appropriate wavelength is selected according to the determination results of a fluorescence spectrophotometer, and a fluorescence response value-concentration curve is plotted with detergent concentrations on the x-axis and fluorescence intensity on the y-axis. The change section of the curve from a plateau region to a rising region is visually obtained, corresponding to the value range of the measured value of cmc.

[5] = as above; format: physicochemical; settings: Supreme Brilliant White washing water with fluorescent brightener; probe dissolved in NMP
Excerpt: as §1, §2

[6] = cmc by fluorescence probe method, customized photoelectric detector (CD detector); format: physicochemical; settings: aqueous solution of Supreme Biotechnology (Bright White) laundry detergent; label = solvent for probe
Method: Here, the liquid to be tested is Supreme Biotechnology (Brilliant White) detergent solution (ZZLB), and the detector is a customized photoelectric detector (CD detector).
In addition, due to the use of the CUR-NMP single organic solvent composition system, the solvent addition amount in Table 6 can be considered equivalent to the addition amount of the probe solution. The cmc value is determined using the fitted line intersection method, i.e., according to the determination results of a fluorescence spectrophotometer, an appropriate wavelength is selected within the corresponding fluorescence emission peak range, and a fluorescence response value-concentration curve is plotted with detergent concentrations on the x-axis and fluorescence intensity on the y-axis. The plateau region and the rising region of the curve are fitted by linear regression, respectively, and the intersection point of two fitted lines is obtained. The surfactant concentration on the x-axis corresponding to the intersection point is the cmc concentration (measured value).
The fluorescence photoelectric detector used in the present invention includes any of the following: • 1) including excitation filter (430 nm), dichroic mirror, and emission filter (495 nm), light source: peak wavelength of 430 nm, waveband of 420 to 440 nm, working current: 0.02 A, working voltage: 5V, the acceptable wavelength range of detector of at least 480-510 nm; • 2) including excitation filter (550 nm), dichroic mirror, and emission filter (638 nm), light source: peak wavelength of 550 nm, waveband of 540 to 560 nm, working current: 0.02 A, working voltage: 5V, the acceptable wavelength range of detector of at least 620-650 nm.
Referring to Examples 1 and 3, Supreme Biotechnology (Brilliant White) detergent solution was prepared. […] Determination was carried out using a CD detector in the above two cases.

[7] = cmc of detergent solution by fluorescence probe method, fluorescence spectrophotometer (Example 1); format: physicochemical
[8] = cmc by surface tension method; format: physicochemical; settings: NMP without probe
Excerpt: Based on the above speculation, the inventors also observed the change in the cmc value at different addition amounts of the NMP solvent (without the probe) used in the CUR-NMP probe solution using the surface tension method. When the addition amount of NMP is less than 1000, the cmc value determined is affected to some extent, but the effect is small. When the addition amount of NMP is less than 400, the cmc value determined is basically not affected, and the result is basically consistent with the result determined by fluorescence spectrometry and conforms to the inference.
FIG. 5 is a graph showing the curves obtained by determining the cmc of the above various brands of detergent solutions using the surface tension method.

[9] = HSP distance between solvent and pyrene
[10] = HSP distance between solvent and rhodamine B
[11] = total δ of solvent minus total δ of pyrene
[12] = total δ of solvent minus total δ of rhodamine B
[13] = aqueous solution of Supreme Biotechnology (Bright White) laundry detergent, label = solvent for probe
[14] = aqueous solution of Supreme Biotechnology (Bright White) laundry detergent, label = solvent for probe (auxiliary agent)
[15] = HSP distance between solvent and curcumin (CUR)
[16] = total δ of solvent minus total δ of curcumin (CUR)

Molecule	Flash point [1] [°C]	Viscosity [1]	Dispersion δD [2]	Hydrogen bonding δH [2]	Polarity δH [2]	Total δ [2]	Volatility/Boiling point [1] [°C]	δ difference [3, 16]	other results
CC(O)CCO (stereo not drawn) [1,3-butanediol]	121	130.3 mPa · s							Viscosity ([1]; listed as 1,3-butanediol (1,3-BDO)): 130 mPa · s
CC(C)=O [Acetone]	−17.8	0.316 mPa · s	15.5 (MPa)^1/2	7 (MPa)^1/2	10.4 (MPa)^1/2	19.935 (MPa)^1/2	56		Ra [3, 9]: 16.806 (MPa)^1/2; Ra [3, 10]: 13.727 (MPa)^1/2; δ difference [3, 11]: −2.974 (MPa)^1/2; δ difference [3, 12]: −10.518 (MPa)^1/2
CC#N [Acetonitrile]	5.6	0.375 mPa · s	15.3 (MPa)^1/2	6.1 (MPa)^1/2	18 (MPa)^1/2	24.399 (MPa)^1/2	82		
Cc1cc(=O)oc2c3c4c(cc12)CCCN4CCC3 [C480, coumarin 480]									cmc value range [4]: 0.05 to 0.2 g/L; cmc value range [5]: 0.3 to 1 g/L
COc1cc(/C=C/C(=O)CC(=O)/C=C/c2ccc(O)c(OC)c2)ccc1O [CUR, curcumin]									cmc value range [4]: 0.05 to 0.1 g/L; cmc value range [5]: 0.2 to 0.3 g/L
CCCCOC(=O)c1ccccc1C(=O)OCCCC [Dibutyl phthalate]	171	9.72 mPa · s	17.8 (MPa)^1/2	4.1 (MPa)^1/2	8.6 (MPa)^1/2	20.189 (MPa)^1/2	339		
CCOCCOCCO [Diethylene glycol monoethyl ether (DGME), Diethylene glycol monoethyl ether]	94	3.85 mPa · s	16.1 (MPa)^1/2	12.2 (MPa)^1/2	9.2 (MPa)^1/2	22.197 (MPa)^1/2	202	−0.382 (MPa)^1/2	cmc value, CUR, By Customized fluorescence photoelectric detector [6]: 0.114 g/L; cmc value, NR, By Customized fluorescence photoelectric detector [6]: 0.074 g/L; cmc value, NR, By Fluorescence spectrophotometer [7, 13]: 0.089 g/L; cmc value, CUR, By Fluorescence spectrophotometer [7, 14]: 0.086 g/L; Ra [3, 15]: 6.386 (MPa)^1/2; Ra [3, 9]: 16.995 (MPa)^1/2; Ra [3, 10]: 10.489 (MPa)^1/2; δ difference [3, 11]: −0.712 (MPa)^1/2; δ difference [3, 12]: −8.256 (MPa)^1/2
C[S+](C)[O-] [Dimethyl sulfoxide]			18.4 (MPa)^1/2	10.2 (MPa)^1/2	16.4 (MPa)^1/2	26.675 (MPa)^1/2		4.096 (MPa)^1/2	Ra [3, 15]: 13.383 (MPa)^1/2
CN(C)C=O [Dimethylformamide (DMF), Dimethylformamide]	58	0.802 mPa · s	17.4 (MPa)^1/2	11.3 (MPa)^1/2	13.7 (MPa)^1/2	24.862 (MPa)^1/2			
CCOCC [Ether]			14.5 (MPa)^1/2	4.6 (MPa)^1/2	2.9 (MPa)^1/2	15.486 (MPa)^1/2			Ra [3, 9]: 16.064 (MPa)^1/2; Ra [3, 10]: 20.633 (MPa)^1/2; δ difference [3, 11]: −7.423 (MPa)^1/2; δ difference [3, 12]: −14.967 (MPa)^1/2
CCOC(=O)CO [Ethyl glycolate]	62						158	2.225 (MPa)^1/2	Ra [3, 15]: 14.383 (MPa)^1/2
OCCOc1ccccc1 [Ethylene glycol monophenyl ether]	121	30.5 mPa · s	17.8 (MPa)^1/2	12.2 (MPa)^1/2	5.9 (MPa)^1/2	22.372 (MPa)^1/2	245	−0.207 (MPa)^1/2	Ra [3, 15]: 2.858 (MPa)^1/2
OCCO [Ethylene glycol]									cmc value, CUR, By Customized fluorescence photoelectric detector [6]: 0.121 g/L; cmc value, CUR, By Fluorescence spectrophotometer [7]: 0.102 g/L; cmc value, NR, By Fluorescence spectrophotometer [7]: 0.091 g/L
OCC(O)CO [Glycerol]			17.4 (MPa)^1/2	29.3 (MPa)^1/2	12.1 (MPa)^1/2	36.162 (MPa)^1/2		13.583 (MPa)^1/2	Ra [3, 15]: 17.614 (MPa)^1/2
CCN1CCCC1=O [N-ethylpyrrolidone (NEP), N-ethylpyrrolidone]	76.1		18 (MPa)^1/2	7 (MPa)^1/2	12 (MPa)^1/2	22.738 (MPa)^1/2	218	0.159 (MPa)^1/2	
CN1CCCC1=O [N-methylpyrrolidone (NMP), N-methylpyrrolidone]	85	1.65 mPa · s	18 (MPa)^1/2	7.2 (MPa)^1/2	12.3 (MPa)^1/2	22.959 (MPa)^1/2	204	0.380 (MPa)^1/2	cmc ([8]; solvent content 0 (v organic solvent/v water)): 0.067 g/L; cmc ([8]; solvent content 0.4%): 0.076 g/L; cmc ([8]; solvent content 1%): 0.073 g/L; cmc ([8]; solvent content 2%): 0.101 g/L; cmc ([8]; solvent content 4%): 0.082 g/L; cmc ([8]; solvent content 10%): 0.131 g/L; cmc ([8]; solvent content 20%): 0.22 g/L; cmc value, CUR, By Customized fluorescence photoelectric detector [6]: 0.116 g/L; cmc value, NR, By Customized fluorescence photoelectric detector [6]: 0.066 g/L; cmc value, NR, By Fluorescence spectrophotometer [7, 13]: 0.088 g/L; cmc value, CUR, By Fluorescence spectrophotometer [7, 14]: 0.100 g/L; Ra [3, 15]: 10.950 (MPa)^1/2; Ra [3, 9]: 14.343 (MPa)^1/2; Ra [3, 10]: 12.708 (MPa)^1/2; δ difference [3, 11]: 0.050 (MPa)^1/2; δ difference [3, 12]: −7.494 (MPa)^1/2
c1ccc(Nc2cccc3ccccc23)cc1 [NPN, N-phenyl-1-naphthylamine]									cmc value range [4]: 0.02 to 0.05 g/L
CCN(CC)c1ccc2nc3c4ccccc4c(=O)cc-3oc2c1 [NR, Nile red]									cmc value range [4]: 0.05 to 0.1 g/L; cmc value range [5]: 0.2 to 0.3 g/L
c1cc2ccc3cccc4ccc(c1)c2c34 [PYR, pyrene, reference compound]			22.5 (MPa)^1/2	4 (MPa)^1/2	1.6 (MPa)^1/2	22.909 (MPa)^1/2			cmc value range [4]: 0.05 to 0.2 g/L; cmc value range [5]: 0.03 to 0.1 g/L
CCN(CC)c1ccc2c(-c3ccccc3C(=O)O)c3ccc(=[N+](CC)CC)cc-3oc2c1 [RhB, rhodamine B, reference compound]			16.7 (MPa)^1/2	18.5 (MPa)^1/2	17.5 (MPa)^1/2	30.453 (MPa)^1/2			cmc value range [4]: 0.1 to 0.15 g/L; cmc value range [5]: 0.3 to 1 g/L
Cc1ccccc1 [Toluene]	4.4	0.587 mPa · s	18 (MPa)^1/2	2 (MPa)^1/2	1.4 (MPa)^1/2				
Polyethylene glycol 200 [Polyethylene glycol 200 (PEG200)]	>100	(22-23) mPa · s							cmc value, CUR, By Customized fluorescence photoelectric detector [6]: 0.113 g/L; cmc value, NR, By Customized fluorescence photoelectric detector [6]: 0.069 g/L; cmc value, NR, By Fluorescence spectrophotometer [7, 13]: 0.062 g/L; cmc value, CUR, By Fluorescence spectrophotometer [7, 14]: 0.094 g/L
Water		1.002 mPa · s	15.5 (MPa)^1/2	42.3 (MPa)^1/2	16 (MPa)^1/2	47.807 (MPa)^1/2			
